# Tested on: MC3T3-E1 cells
# Experiment: Alkaline phosphatase (ALP) activity of osteoblasts in cell culture system
# Format: cell-based, mice
# Parameters: key to Judged Efficacy (ALP, t-test relative to the control): ⊚: The test substance shows a considerable inhibitory effect (p < 0.01); ◯: The test substance shows an inhibitory effect (p < 0.05); Δ: The test substance shows only slight or no inhibitory effect (there is not observed any significant difference); X: The test substance shows a bone absorption-promoting effect (there is observed a negativesignificant difference)
# Settings: 2.5 μM; cultivation over one week; control 71.6 ± 4.6
# Source text: (§1) In such a system, the osteoblasts are proliferated and the activity of osteoblasts is increased. Therefore, any influence of a substance on the osteoblast-formation can be evaluated by determining, for instance, the rate of cell proliferation and the alkaline phosphatase (ALP) activity as an activity parameter.
# (§2) In this Example, there were examined the effects of the chain isoprenoid fatty acid esters on the differentiation and calcium-accumulation of MC3T3-E1 cells or the osteoblasts derived from the skull-caps of mice. A culture medium was added to a 6-well plate in an amount of 2 mL/well, a desired number of MC3T3-E1 cells was inoculated on the medium and the cells were cultivated in a 10% fatal bovine serum-containing base culture liquid (α-MEM, available from Gibco Company) at 37° C. in an atmosphere of 5% CO2. On the day subsequent to the initiation of the cultivation, the culture medium was replaced with the fresh one and simultaneously a solution containing each test sample (the chain isoprenoid fatty acid esters obtained in Preparation Examples 1 to 9) was admixed with and added to the culture medium in an amount of 10 μM for the determination of the cell growth rate and 2.5 μM for the determination of the alkali phosphatase (ALP) activity and the cultivation was continued. The cells for the cell growth rate determination were recovered after 3 days from the initiation of the cultivation and the number of viable cells was counted to determine the cell growth rate. Regarding the other cells, the medium was replaced with fresh one on 5th day of cultivation, the test sample-containing solution was again added and the alkali phosphatase (ALP) activity was determined after the cultivation over one week.
# In these experiments, there was used a kit for Alkaline Phospha K-Test WAKO (available from WAKO Pure Chemical Co., Ltd.). A sample used was a suspension of cells obtained by cultivating the same in the presence of each test substance added. A substrate (150 μL) was added to 10 μL of each sample followed by heating at 37° C. for 15 minutes, the addition of 150 μL of a color-developing liquid and determination of the absorbance at 570 nm. The ALP activity corresponding to each absorbance thus measured was determined using a calibration curve prepared in advance.
row,SMILES,ALP Act.
1,CCC=CCC=CCC=CCC=CCC=CCCCC(=O)OCCC(C)CCCC(C)CCCC(C)CCCC(C)C (stereo not shown) [Dihydrophytyl Eicosapentaenoate],118.7 ± 8.9 KA-U/well
2,CCCCC/C=C\C/C=C\C/C=C\CCCCC(=O)OC/C=C(\C)CC/C=C(\C)CC/C=C(\C)CCC=C(C)C [Geranyl-Geranyl γ-Linolenate],84.4 ± 5.1 KA-U/well
3,"CCCCCCCC/C=C\CCCCCCCC(=O)OC/C=C(\C)CC/C=C(\C)CC/C=C(\C)CCC=C(C)C [Geranyl-geranyl oleate, Geranyl-Geranyl Oleate]",82.8 ± 6.7 KA-U/well
4,"CCCCCCCCCCCCCCCCCC(=O)OC/C=C(\C)CC/C=C(\C)CC/C=C(\C)CCC=C(C)C [Geranyl-geranyl stearate, Geranyl-Geranyl Stearate]",80.1 ± 5.2 KA-U/well
5,"CC1=C(C/C=C(\C)CCC[C@H](C)CCC[C@H](C)CCCC(C)C)C(=O)c2ccccc2C1=O [Vitamin K1, reference compound]",76.1 ± 4.9 KA-U/well
6,"CC(C)=CCC/C(C)=C/CC/C(C)=C/CC/C(C)=C/CC1=C(C)C(=O)c2ccccc2C1=O [Vitamin K2 (MK-4), reference compound]",78.6 ± 3.2 KA-U/well

# Same assay, conditions: 2.5 μM; one week
row,SMILES,"Judged Efficacy (ALP, t-test relative to the control)"
1,CCC=CCC=CCC=CCC=CCC=CCCCC(=O)OCCC(C)CCCC(C)CCCC(C)CCCC(C)C (stereo not shown) [Dihydrophytyl Eicosapentaenoate],⊚ (The test substance shows a considerable inhibitory effect (p < 0.01))
2,CCCCC/C=C\C/C=C\C/C=C\CCCCC(=O)OC/C=C(\C)CC/C=C(\C)CC/C=C(\C)CCC=C(C)C [Geranyl-Geranyl γ-Linolenate],⊚ (The test substance shows a considerable inhibitory effect (p < 0.01))
3,"CCCCCCCC/C=C\CCCCCCCC(=O)OC/C=C(\C)CC/C=C(\C)CC/C=C(\C)CCC=C(C)C [Geranyl-geranyl oleate, Geranyl-Geranyl Oleate]",◯ (The test substance shows an inhibitory effect (p < 0.05))
4,"CCCCCCCCCCCCCCCCCC(=O)OC/C=C(\C)CC/C=C(\C)CC/C=C(\C)CCC=C(C)C [Geranyl-geranyl stearate, Geranyl-Geranyl Stearate]",◯ (The test substance shows an inhibitory effect (p < 0.05))
5,"CC1=C(C/C=C(\C)CCC[C@H](C)CCC[C@H](C)CCCC(C)C)C(=O)c2ccccc2C1=O [Vitamin K1, reference compound]",Δ
6,"CC(C)=CCC/C(C)=C/CC/C(C)=C/CC/C(C)=C/CC1=C(C)C(=O)c2ccccc2C1=O [Vitamin K2 (MK-4), reference compound]",◯ (The test substance shows an inhibitory effect (p < 0.05))

# Tested on: osteoclasts
# Experiment: Bone absorption-inhibitory action in cell co-cultivation system (TRACP activity)
# Format: cell-based, mice
# Settings: 10 μM test substance; 2 weeks
# Source text: The cell co-culture system used herein means a system in which osteoblasts and hematopoietic cells are subjected to co-culture in the presence of a factor for promoting the formation of osteoclasts and which thus easily permits the analysis of the differentiation process of the osteoclasts (Endocrinology, 1988, 123: 2600-2602). In such a system, osteoclasts are formed and therefore, the degree of osteoclast-formation can be evaluated by the determination of a tartaric acid-resistant acid phosphatase (TRACP) activity in the cell layer as the parameter indicative of the osteoclast.
# The test for the confirmation of the bone absorption-inhibitory action of the isoprenoid ester was carried out according to the method disclosed in the literature (Endocrinology, 1988, 123: 2600). The method will be outlined below:
# Stroma cells collected from the skull-caps of two-week-old mice according to the method disclosed in the literature (Endocrinology, 1988, 123: 2600) were dispersed in a 10% fetal bovine serum-containing culture base liquid (α-MEM; available from Gibco Company) to a cell density of 5×10^4 cells/mL.
# Spleen cells collected from the spleen of 6-week-old ddy male mice according to the method disclosed in the literature (Proc. Natl. Acad. Sci. USA, 1983, 80: 5583) were dispersed in a 10% fetal bovine serum-containing culture base liquid (α-MEM; available from Gibco Company) to a cell density of 5×10^5 cells/mL.
# The co-cultivation was carried out in a 5% CO2-containing atmosphere at a temperature of 37° C. using a 10% FBS (fetal bovine serum)-containing culture base liquid (α-MEM; available from Gibco Company). Osteoblast cells were inoculated on a 24-well petri dish at a cell density of 5×10^4 cells/mL/well, spleen cells were then inoculated thereon at a cell density of 5×10^5 cells/mL/well after one day and a solution of a test substance, which had been dissolved in DMSO in a concentration of 10^-2M, was then added to each well in such a manner that the concentration of the test substance was equal to 10 μM. These cells were cultivated in the presence of 10 nM Calcitriol and 100 nM Dexamethasone over 2 weeks while defining the day on which the spleen cells were inoculated as 0th day. In this respect, the culture medium was replaced with fresh one twice a week. After two weeks, the activity of the tartrate-resistant acid phosphatase (hereunder referred to as “TRACP”) in the cell layer was determined, which served as a parameter indicating the number of osteoclasts in the layer.
# In the determination of the TRACP activity, there was used a kit of acid phosphatase KII-WAKO (available from WAKO Pure Chemical Co., Ltd.). The culture medium was removed from the Petri dish, 500 μL each of a substrate was added to each well, the resulting cell suspension was heated at 37° C. for 15 minutes, followed by the addition of 500 μL each of a color developing liquid and the determination of the absorbance at a wavelength of 570 nm. The TRACP activity corresponding to each absorbance thus measured was determined using a calibration curve prepared in advance.
row,SMILES,"Judged Efficacy (TRACP, t-test relative to the control)"
1,CCC=CCC=CCC=CCC=CCC=CCCCC(=O)OCCC(C)CCCC(C)CCCC(C)CCCC(C)C (stereo not shown) [Dihydrophytyl Eicosapentaenoate],◯ (The test substance shows an inhibitory effect (p < 0.05))
2,CCCCC/C=C\C/C=C\C/C=C\CCCCC(=O)OC/C=C(\C)CC/C=C(\C)CC/C=C(\C)CCC=C(C)C [Geranyl-Geranyl γ-Linolenate],⊚ (The test substance shows a considerable inhibitory effect (p < 0.01))
3,"CCCCCCCC/C=C\CCCCCCCC(=O)OC/C=C(\C)CC/C=C(\C)CC/C=C(\C)CCC=C(C)C [Geranyl-geranyl oleate, Geranyl-Geranyl Oleate]",⊚ (The test substance shows a considerable inhibitory effect (p < 0.01))
4,"CCCCCCCCCCCCCCCCCC(=O)OC/C=C(\C)CC/C=C(\C)CC/C=C(\C)CCC=C(C)C [Geranyl-geranyl stearate, Geranyl-Geranyl Stearate]",⊚ (The test substance shows a considerable inhibitory effect (p < 0.01))
5,"CC1=C(C/C=C(\C)CCC[C@H](C)CCC[C@H](C)CCCC(C)C)C(=O)c2ccccc2C1=O [Vitamin K1, reference compound]",◯ (The test substance shows an inhibitory effect (p < 0.05))
6,"CC(C)=CCC/C(C)=C/CC/C(C)=C/CC/C(C)=C/CC1=C(C)C(=O)c2ccccc2C1=O [Vitamin K2 (MK-4), reference compound]",⊚ (The test substance shows a considerable inhibitory effect (p < 0.01))

# Same assay, conditions: 10 μM test substance; co-culture 2 weeks with 10 nM Calcitriol and 100 nM Dexamethasone; control 102.8 ± 12.6
row,SMILES,TRACP Act.
1,CCC=CCC=CCC=CCC=CCC=CCCCC(=O)OCCC(C)CCCC(C)CCCC(C)CCCC(C)C (stereo not shown) [Dihydrophytyl Eicosapentaenoate],83.4 ± 9.4 KA-U/well
2,CCCCC/C=C\C/C=C\C/C=C\CCCCC(=O)OC/C=C(\C)CC/C=C(\C)CC/C=C(\C)CCC=C(C)C [Geranyl-Geranyl γ-Linolenate],21.7 ± 4.9 KA-U/well
3,"CCCCCCCC/C=C\CCCCCCCC(=O)OC/C=C(\C)CC/C=C(\C)CC/C=C(\C)CCC=C(C)C [Geranyl-geranyl oleate, Geranyl-Geranyl Oleate]",16.8 ± 3.4 KA-U/well
4,"CCCCCCCCCCCCCCCCCC(=O)OC/C=C(\C)CC/C=C(\C)CC/C=C(\C)CCC=C(C)C [Geranyl-geranyl stearate, Geranyl-Geranyl Stearate]",25.3 ± 5.2 KA-U/well
5,"CC1=C(C/C=C(\C)CCC[C@H](C)CCC[C@H](C)CCCC(C)C)C(=O)c2ccccc2C1=O [Vitamin K1, reference compound]",88.5 ± 8.1 KA-U/well
6,"CC(C)=CCC/C(C)=C/CC/C(C)=C/CC/C(C)=C/CC1=C(C)C(=O)c2ccccc2C1=O [Vitamin K2 (MK-4), reference compound]",20.3 ± 4.1 KA-U/well

# Tested on: MC3T3-E1 cells
# Experiment: Cell growth rate of osteoblasts in cell culture system
# Format: cell-based, mice
# Settings: 10 μM; viable cells after 3 days; relative to control defined as 100
# Source text: as §1, §2
# The cell growth rate was calculated as a value relative to the cell growth rate observed for the control (free of any added test sample), which was defined to be 100.
row,SMILES,Cell Growth Rate
1,CCC=CCC=CCC=CCC=CCC=CCCCC(=O)OCCC(C)CCCC(C)CCCC(C)CCCC(C)C (stereo not shown) [Dihydrophytyl Eicosapentaenoate],118.9%
2,CCCCC/C=C\C/C=C\C/C=C\CCCCC(=O)OC/C=C(\C)CC/C=C(\C)CC/C=C(\C)CCC=C(C)C [Geranyl-Geranyl γ-Linolenate],111.4%
3,"CCCCCCCC/C=C\CCCCCCCC(=O)OC/C=C(\C)CC/C=C(\C)CC/C=C(\C)CCC=C(C)C [Geranyl-geranyl oleate, Geranyl-Geranyl Oleate]",108.3%
4,"CCCCCCCCCCCCCCCCCC(=O)OC/C=C(\C)CC/C=C(\C)CC/C=C(\C)CCC=C(C)C [Geranyl-geranyl stearate, Geranyl-Geranyl Stearate]",102.9%
5,"CC1=C(C/C=C(\C)CCC[C@H](C)CCC[C@H](C)CCCC(C)C)C(=O)c2ccccc2C1=O [Vitamin K1, reference compound]",69.3%
6,"CC(C)=CCC/C(C)=C/CC/C(C)=C/CC/C(C)=C/CC1=C(C)C(=O)c2ccccc2C1=O [Vitamin K2 (MK-4), reference compound]",32.4%

# Same assay, conditions: compared with the control; 10 μM
row,SMILES,Effect on proliferation of osteoblasts (in words)
1,"CC(C)=CCC/C(C)=C/CC/C(C)=C/CC/C(C)=C/CC1=C(C)C(=O)c2ccccc2C1=O [Vitamin K2 (MK-4), reference compound]",reduces the rate of cell proliferation
